Reference: patent publication US6797711B2, “Benzofuran derivatives and pharmaceutical compositions containing the same” (Pola Chemical Industries, Inc., priority 2000, dated 2004)

melting point [°C]	SMILES
126.5 to 128	O=C(/C=C/c1ccccc1)N1CCN(CC(O)c2cc3ccccc3o2)CC1 (centres unmarked) [Compound 1, 1-(2-(benzofuran-2-yl)-2-hydroxy)ethyl-4-cinnamoylpiperazine]
125.5 to 127.5	O=C(CC(c1ccccc1)c1ccccc1)N1CCN(CC(O)c2cc3ccccc3o2)CC1 (centres unmarked) [Compound 3, 1-(2-(benzofuran-2-yl)-2-hydroxy)ethyl-4-(3,3-diphenylpropionyl)piperazine]
130.5 to 132	O=C(CC(c1ccccc1)c1ccccc1)N1CCN(C(=O)c2cc3ccccc3o2)CC1 [Compound 4, 1-(benzofuran-2-yl)carbonyl-4-(3,3-diphenylpropionyl)piperazine]
120.5 to 122	O=C(CC(c1ccccc1)c1ccccc1)N1CCN(Cc2cc3ccccc3o2)CC1 [Compound 6, 1-(benzofuran-2-yl)methyl-4-(3,3-diphenylpropionyl)piperazine]
123.3 to 124.1	O=C(CC(c1ccccc1)c1ccccc1)N1CCN(CCc2cc3ccccc3o2)CC1 [Compound 7, 1-(2-(benzofuran-2-yl)ethyl)-4-(3,3-diphenylpropionyl)piperazine]
